Measurements as given in PubChem BioAssay AID248 (DTP/NCI, 2004).
Values joined by “and” are separate entries in the source; they are usually repeats but may differ in a detail not shown here. Equal values may be shown once. Inconclusive results and toxic doses are left out. Cut-off read from the data, not from the text of the source: active = T/C of 150% or more; inactive = T/C below 125%.

System: L1210 leukemia ip in BDF1 mice, survival T/C
Assay: NCI In Vivo Anticancer Drug Screen. Data for tumor model L1210 Leukemia (intraperitoneal) in B6D2F1 (BDF1) mice
Settings: endpoint: mean survival time, higher = longer survival
Procedure, shortened: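 Mice bearing the transplanted tumor received compound or vehicle. Survival of the treated group was divided by that of the vehicle-treated control group to give the ratio.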

[1] = dose: 100.0 mg/kg/injection, schedule: Q04DX003 (ip), vehicle: saline
[2] = dose: 200.0 mg/kg/injection, schedule: Q04DX003 (ip), vehicle: saline
[3] = dose: 400.0 mg/kg/injection, schedule: Q04DX003 (ip), vehicle: saline
[4] = dose: 100.0 mg/kg/injection, schedule: Q01DX001 (ip), vehicle: saline
[5] = dose: 200.0 mg/kg/injection, schedule: Q01DX001 (ip), vehicle: saline
[6] = dose: 400.0 mg/kg/injection, schedule: Q01DX001 (ip), vehicle: saline
[7] = dose: 100.0 mg/kg/injection, schedule: Q04DX003 (ip), vehicle: Klucel (hydroxypropylcellulose) (HPC)
[8] = dose: 200.0 mg/kg/injection, schedule: Q04DX003 (ip), vehicle: Klucel (hydroxypropylcellulose) (HPC)
[9] = dose: 12.5 mg/kg/injection, schedule: Q01DX009 (ip), vehicle: Klucel (hydroxypropylcellulose) (HPC)
[10] = dose: 12.5 mg/kg/injection, schedule: Q04DX003 (ip), vehicle: Klucel (hydroxypropylcellulose) (HPC)
[11] = dose: 25.0 mg/kg/injection, schedule: Q04DX003 (ip), vehicle: Klucel (hydroxypropylcellulose) (HPC)
[12] = dose: 100.0 mg/kg/injection, schedule: Q01DX009 (ip), vehicle: saline with Tween-80
[13] = dose: 100.0 mg/kg/injection, schedule: Q04DX003 (ip), vehicle: saline with Tween-80
[14] = dose: 200.0 mg/kg/injection, schedule: Q01DX009 (ip), vehicle: saline with Tween-80
[15] = dose: 200.0 mg/kg/injection, schedule: Q04DX003 (ip), vehicle: saline with Tween-80
[16] = dose: 400.0 mg/kg/injection, schedule: Q01DX009 (ip), vehicle: saline with Tween-80
[17] = dose: 400.0 mg/kg/injection, schedule: Q04DX003 (ip), vehicle: saline with Tween-80
[18] = dose: 100.0 mg/kg/injection, schedule: Q01DX009 (ip), vehicle: Klucel (hydroxypropylcellulose) (HPC)
[19] = dose: 200.0 mg/kg/injection, schedule: Q01DX009 (ip), vehicle: Klucel (hydroxypropylcellulose) (HPC)
[20] = dose: 400.0 mg/kg/injection, schedule: Q01DX009 (ip), vehicle: Klucel (hydroxypropylcellulose) (HPC)
[21] = dose: 400.0 mg/kg/injection, schedule: Q04DX003 (ip), vehicle: Klucel (hydroxypropylcellulose) (HPC)

Measured: T/C

COC(=O)C12COC(=O)C1COC2=O (centres undefined)
inactive: [1] 100 % of control | [2] 98 % of control | [3] 109 % of control

CN(C)C(=S)N(C(=S)N(C)C)c1ccc(Cl)cc1
inactive: [4] 101 % of control | [5] 92 % of control | [6] 97 % of control

CC(=O)[S][Pb]([c]1ccccc1)([c]1ccccc1)[c]1ccccc1
inactive: dose: 1.0 mg/kg/injection, schedule: Q01DX009 (ip), vehicle: saline 93 % of control | dose: 2.0 mg/kg/injection, schedule: Q01DX009 (ip), vehicle: saline 93 % of control | dose: 4.0 mg/kg/injection, schedule: Q01DX009 (ip), vehicle: saline 95 % of control and 100 % of control | dose: 5.9 mg/kg/injection, schedule: Q01DX009 (ip), vehicle: saline 86 % of control

CNCCc1ccccc1
inactive: [4] 107 % of control | [5] 108 % of control

COc1ccc(/C=C/C(=O)c2ccc(OC)c(OCc3ccccc3)c2)cc1OC
inactive: dose: 100.0 mg/kg/injection, schedule: Q01DX009 (ip), vehicle: water 98 % of control | dose: 100.0 mg/kg/injection, schedule: Q04DX003 (ip), vehicle: water 98 % of control | dose: 200.0 mg/kg/injection, schedule: Q01DX009 (ip), vehicle: water 93 % of control | dose: 200.0 mg/kg/injection, schedule: Q04DX003 (ip), vehicle: water 94 % of control | dose: 400.0 mg/kg/injection, schedule: Q01DX009 (ip), vehicle: water 97 % of control | dose: 400.0 mg/kg/injection, schedule: Q04DX003 (ip), vehicle: water 98 % of control

CC1(C)C(C)(C)C12C=CC=C2
inactive: dose: 25.0 mg/kg/injection, schedule: Q01DX001 (ip), vehicle: saline 104 % of control | dose: 50.0 mg/kg/injection, schedule: Q01DX001 (ip), vehicle: saline 102 % of control | [4] 101 % of control

CCCCOP(=O)(Cc1ccc(Cl)c(Cl)c1)OCCCC
inactive: dose: 100.0 mg/kg/injection, schedule: Q04DX002 (sc), vehicle: olive oil, sesame oil, peanut oil 98 % of control | dose: 200.0 mg/kg/injection, schedule: Q04DX002 (sc), vehicle: olive oil, sesame oil, peanut oil 102 % of control | dose: 400.0 mg/kg/injection, schedule: Q04DX002 (sc), vehicle: olive oil, sesame oil, peanut oil 98 % of control

Cc1cc(C)c(CSC(=N)N)c(C)c1
inactive: dose: 25.0 mg/kg/injection, schedule: Q04DX002 (ip), vehicle: Klucel (hydroxypropylcellulose) (HPC) 88 % of control | dose: 50.0 mg/kg/injection, schedule: Q04DX002 (ip), vehicle: Klucel (hydroxypropylcellulose) (HPC) 92 % of control | dose: 100.0 mg/kg/injection, schedule: Q04DX002 (ip), vehicle: Klucel (hydroxypropylcellulose) (HPC) 100 % of control and 89 % of control

O=C1OC(OC(=O)c2ccccc2)C(Br)=C1Br (centres undefined)
inactive: [7] 98 % of control | [8] 104 % of control

CC1(C)CC(=O)CC(C)(C#N)C1 (centres undefined)
inactive: dose: 6.25 mg/kg/injection, schedule: Q01DX009 (ip), vehicle: Klucel (hydroxypropylcellulose) (HPC) 97 % of control | [9] 99 % of control | [10] 91 % of control | [11] 93 % of control

Cc1cc2nc3c(nc2cc1C)C1CC(Br)CCC1N3 (centres undefined)
inactive: [4] 97 % of control | [5] 95 % of control | [6] 91 % of control

CN=C(NCCCOC)c1ccc(NC(=O)c2ccc(C(=O)Nc3ccc(C(=NC)NCCCOC)cc3)cc2)cc1
active: dose: 10.0 mg/kg/injection, schedule: Q01DX Z (ip), vehicle: carboxymethylcellulose (CMC) 156 % of control | dose: 15.0 mg/kg/injection, schedule: Q01DX Z (ip), vehicle: carboxymethylcellulose (CMC) 179 % of control | dose: 15.0 mg/kg/injection, schedule: Q01DX Z (ip), vehicle: saline 155 % of control and 172 % of control
inactive: dose: 4.4 mg/kg/injection, schedule: Q01DX Z (ip), vehicle: carboxymethylcellulose (CMC) 124 % of control | dose: 4.4 mg/kg/injection, schedule: Q01DX Z (ip), vehicle: saline 108 % of control | dose: 6.6 mg/kg/injection, schedule: Q01DX Z (ip), vehicle: saline 108 % of control | dose: 30.0 mg/kg/injection, schedule: Q01DX Z (oral), vehicle: saline 101 % of control | dose: 60.0 mg/kg/injection, schedule: Q01DX Z (oral), vehicle: saline 91 % of control | dose: 120.0 mg/kg/injection, schedule: Q01DX Z (oral), vehicle: saline 93 % of control | dose: 240.0 mg/kg/injection, schedule: Q01DX Z (oral), vehicle: saline 87 % of control | dose: 480.0 mg/kg/injection, schedule: Q01DX Z (oral), vehicle: saline 91 % of control

Cc1cc(C(=O)CCl)c(CN2C(=O)c3ccccc3C2=O)c(=O)n1C
inactive: [12] 98 % of control | [13] 108 % of control | [14] 100 % of control | [15] 105 % of control | [16] 92 % of control | [17] 110 % of control

CCCOC(=O)c1ccc([N+](=O)[O-])o1
inactive: dose: 100.0 mg/kg/injection, schedule: Q01DX001 (ip), vehicle: Klucel (hydroxypropylcellulose) (HPC) 95 % of control | dose: 200.0 mg/kg/injection, schedule: Q01DX001 (ip), vehicle: Klucel (hydroxypropylcellulose) (HPC) 92 % of control

Nc1cccc2c1C(=O)C=CC2=O
inactive: dose: 0.78 mg/kg/injection, schedule: Q01DX009 (ip), vehicle: saline 103 % of control | dose: 1.56 mg/kg/injection, schedule: Q01DX009 (ip), vehicle: saline 101 % of control | dose: 1.56 mg/kg/injection, schedule: Q04DX003 (ip), vehicle: saline 95 % of control | dose: 3.12 mg/kg/injection, schedule: Q01DX009 (ip), vehicle: saline 98 % of control | dose: 3.12 mg/kg/injection, schedule: Q04DX003 (ip), vehicle: saline 103 % of control | dose: 4.6 mg/kg/injection, schedule: Q01DX009 (ip), vehicle: saline 104 % of control

Cc1ccc(C(=O)NCCCOc2ccc([N+](=O)[O-])cc2Cl)cc1S(=O)(=O)F
inactive: [12] 106 % of control | [13] 86 % of control | [14] 96 % of control | [15] 97 % of control | [16] 98 % of control | [17] 103 % of control

CC(C)SC=O
inactive: dose: 50.0 mg/kg/injection, schedule: Q01DX009 (ip), vehicle: saline 94 % of control | dose: 100.0 mg/kg/injection, schedule: Q01DX009 (ip), vehicle: saline 93 % of control | [1] 100 % of control | dose: 200.0 mg/kg/injection, schedule: Q01DX009 (ip), vehicle: saline 93 % of control | [2] 105 % of control | dose: 400.0 mg/kg/injection, schedule: Q01DX009 (ip), vehicle: saline 89 % of control | [3] 100 % of control

CC(=O)OC1=CCC(C(C)(C)C)CC1 (centres undefined)
inactive: [9] 107 % of control | [10] 96 % of control | dose: 25.0 mg/kg/injection, schedule: Q01DX009 (ip), vehicle: Klucel (hydroxypropylcellulose) (HPC) 93 % of control | [11] 102 % of control | dose: 50.0 mg/kg/injection, schedule: Q04DX003 (ip), vehicle: Klucel (hydroxypropylcellulose) (HPC) 106 % of control

Cc1cccc(C)c1NC(=O)c1ccc(Cl)cc1Cl
inactive: [18] 101 % of control | [7] 98 % of control | [19] 104 % of control | [8] 101 % of control | [20] 101 % of control | [21] 95 % of control

CCN=C(CCl)NS(=O)(=O)c1ccc(C)cc1
inactive: dose: 25.0 mg/kg/injection, schedule: Q04DX002 (ip), vehicle: saline with Tween-80 113 % of control | dose: 50.0 mg/kg/injection, schedule: Q04DX002 (ip), vehicle: saline with Tween-80 109 % of control | dose: 100.0 mg/kg/injection, schedule: Q04DX002 (ip), vehicle: saline with Tween-80 109 % of control

COc1cc(Br)c2c(c1OC)C(=O)CC2
inactive: [18] 94 % of control | [7] 98 % of control | [19] 96 % of control | [8] 96 % of control | [20] 98 % of control | [21] 91 % of control
